Measurements published in patent publication US11421001B2, “Template-fixed peptidomimetics” (UNIVERSITAET ZUERICH, priority 2007, dated 2022).

Tests used:
[1] = test system: hematopoietic progenitors (CFU-GM); experiment: Stem cell mobilisation, mice model (CFU-GM); type: in vivo, mouse
Description: The aim of the study was to evaluate the ability of the compound of Example 1 and Example 2 to mobilize hematopoietic progenitors from mouse bone marrow to peripheral blood using in-vitro hematopoietic colony assays. In humans, accurate information about progenitor cell mobilization is provided by the colony forming unit granulocyte-monocyte (CFU-GM) assay or by determining the abundance of CD34(+) cells by FACS analysis (see ref. 10 below). In mice, CD34 is not a useful marker for stem cells; instead the CFU-GM is more commonly used (see ref. 11 below).
In order to assess the ability of the compounds of Example 1 and Example 2 to mobilize murine stem cells (CFU-GM) C3H/HeJ female mice (Jackson Laboratory) were injected s.c. with 5 mg/k, of the compounds of Example 1 and of Example 2 and as reference AMD3100 (Broxmeyer, et al, J Exp Med 201, 1307-1318), (currently undergoing Phase III clinical trials) for stem cell mobilisation. Peripheral blood samples from 5 animals per test group were collected at each time point and nucleated cell counts performed as standard assays.

[2] = test system: CD34(+) hematopoietic cells; experiment: Stem cell mobilisation, monkey model (CD34(+) cells by FACS); type: in vivo, cynomolgus monkeys (Macaca fascicularis); conditions: cynomolgus monkeys, slow bolus i.v. injection
Procedure: An assessment of mobilization of peripheral-blood hematopoietic stem cells in cynomolgus monkeys (Macaca fascicularis) was performed. The compound of Example 1 was administered to 4 monkeys (2 male and 2 female) as a slow bolus i.v. injection over 2 minutes and CD34(+) cells were determined by FACS analysis. Toxicokinetic blood sampling was also performed.

[3] = Plasma stability, human plasma; type: in vitro ADME; conditions: read-out: Stability human Plasma t1/2
[4] = test system: human red blood cells (hRBC); experiment: Hemolysis; type: cell-based; conditions: 100 μM peptide, 20% v/v hRBC, 1 hour at 37° C.; percent hemolysis per method
Procedure: The peptides were tested for their hemolytic activity against human red blood cells (hRBC). Fresh hRBC were washed three times with phosphate buffered saline (PBS) by centrifugation for 10 min at 2000×g. Peptides at a concentration of 100 μM were incubated with 20% v/v hRBC for 1 hour at 37° C. The final erythrocyte concentration was approximately 0.9×10^9 cells per ml. A value of 0% resp. 100% cell lysis was determined by incubation of the hRBC in the presence of PBS alone and respectively 0.1% Triton X-100 in H2O. The samples were centrifuged and the supernatant was 20-fold diluted in PBS buffer and the optical density (OD) of the sample at […] was measured. The 100% lyses value (OD540H2O) gave an OD540 of approximately 1.3-1.8. Percent hemolysis was calculated as follows: (OD540peptide/OD540H2O)×100%.

human CXCR4 = molecular target: T1, human CXCR4 (Homo sapiens, UniProt P61073); experiment: Ca2+ assay: CXCR4-antagonizing activity; type: cell-based
T1 construct: expressed in transfected cells; host or cells: mouse pre-B cell line 300-19
T1 sequence (P61073 whole entry): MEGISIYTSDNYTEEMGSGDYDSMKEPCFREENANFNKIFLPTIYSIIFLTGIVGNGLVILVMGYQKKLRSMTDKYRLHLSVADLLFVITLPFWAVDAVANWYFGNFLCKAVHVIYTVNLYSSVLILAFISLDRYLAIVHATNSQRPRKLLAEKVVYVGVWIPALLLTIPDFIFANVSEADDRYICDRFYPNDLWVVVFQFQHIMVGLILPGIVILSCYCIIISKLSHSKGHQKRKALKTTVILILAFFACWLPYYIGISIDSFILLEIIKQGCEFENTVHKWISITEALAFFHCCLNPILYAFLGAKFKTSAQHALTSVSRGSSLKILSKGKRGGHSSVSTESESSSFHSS
Procedure: 2.2. Ca^2+− Assay: CXCR4-Antagonizing Activity of the Peptides.
Increases in intracellular calcium were monitored using a Flexstation 384 (Molecular Devices, Sunnyvale, Calif.) to assay the peptides for CXCR4 antagonism in a mouse pre-B cell line 300-19 stably transfected with human CXCR4 [see references 1, 2 and 3, below]. The cells were batch loaded with the Calcium 3 Assay kit (Molecular Devices) in assay buffer (Hanks Balanced salt solution, HBSS, 20 mM HEPES, pH 7.4, 0.1% BSA) for 1 h at room temperature and then 200,000 labeled cells were dispensed into black 96 well assays plates (Costar No. 3603). A 20-fold concentrated solution of peptide in assay buffer was added to the cells and the whole plate was centrifuged to settle the cells to the bottom of the wells. Calcium mobilization induced by 10 nM stromal-derived factor-1 (SDF-1) was measured in the Flexstation 384 (excitation, 485 […]) for 90 seconds. A maximal change in fluorescence response above baseline was used to calculate antagonist activity. The data for dose response curves (antagonist concentration versus % maximum response) were fitted to a four parameter logistic equation using SoftmaxPro 4.6 (Molecular Devices), from which IC50% values were calculated.

[5] = 14-day intravenous injection toxicity and toxicokinetic study in mice; type: in vivo, mouse
Procedure: 3.2 Repeated Toxicity Studies in Mice
The toxicity and toxicokinetics of the compound of Example 1 was investigated following daily i.v. injection in the mouse for at least 14 days. Groups of 12 male and 12 female Crl:CD1(ICR) mice received dose preparations containing control article (50 mM sodium dihydrogen orthophosphate buffer containing 0.9% w/v sodium chloride) or 8, 24, or 40 mg/kg/day POL6326 at a dose volume of 5 mL/kg. Satellite groups of 24 animals per sex per group were included at each dose level. Assessment of toxicity was based on mortality, clinical signs, body weights, food consumption, ophthalmic examinations, clinical and anatomic pathology, and toxicokinetic evaluations.

[6] = Maximum tolerated dose in mice; type: in vivo, mouse; conditions: mouse, i.v.
Procedure: 3.1. Maximum Tolerated Dose in Mice
a) The compound of Example 1, dispersed in Water for Injection or 0.9% physiological saline), was administered, in the preliminary study, by i.v. injection at dose levels of 35, 50, 70, 85, 100, 150, 250 or 500 mg/kg to groups consisting of one male and one female mouse (Crl:CD1(ICR)). In addition, two groups comprising two male and two female mice received dose levels of 90 and 100 mg/kg, respectively, and the 50 mg/kg dose level was repeated in a group comprising one male and one female.
b) Maximum tolerated dose studies (MTD) carried out with the compound of Example 2 using CD1 mice (3 mice/group) and was performed using i.v, ip and sc. administration.

[7] = Plasma stability, rat plasma; type: in vitro ADME; conditions: read-out: Stability rat Plasma t1/2
[8] = Cytotoxicity assay (MTT reduction); type: cell-based; conditions: human, HELA cells (Acc57), peptides at 12.5, 25 and 50 μM, trend line, read-out: Cyto-toxicity LC50/GI50 Hela cells
Procedure: The cytotoxicity of the peptides to HELA cells (Acc57) and COS-7 cells (CRL-1651) was determined using the MTT reduction assay [see ref. 6 and 7, below]. Briefly the method was as follows: HELA cells and COS-7 cells were seeded at 7.0×10^3 and, respectively, 4.5×10^3 cells per well and grown in 96-well microtiter plates for 24 hours at 37° C. at 5% CO2. At this point, time zero (Tz) was determined by MTT reduction (see below). The supernatant of the remaining wells was discarded, and fresh medium and the peptides in serial dilutions of 12.5, 25 and 50 μM were pipetted into the wells. Each peptide concentration was assayed in triplicate. Incubation of the cells was continued for 48 hours at 37° C. at 5% CO2. Wells were then washed once with PBS and subsequently 100 μl MTT reagent (0.5 mg/mL in medium RPMI1640 and, respectively, DMEM) was added to the wells. This was incubated at 37° C. for 2 hours and subsequently the medium was aspirated and 100 μl isopropanol was added to each well. The absorbance at 595 nm of the solubilized product was measured (OD595peptide). For each concentration averages were calculated from triplicates. The percentage of growth was calculated as follows: (OD595peptide−OD595Tz−OD595Empty well)/(OD595Tz−OD595Empty well)×100% and was plotted for each peptide concentration. […]

[9] = mouse, 8, 24 or 40 mg/kg/day i.v.

Structure (SMILES)	effect on CFU-GM blood cell numbers / progenitors over time ([1]; C3H/HeJ mice, 5 mg/kg s.c., compared to control mice)	duration of mobilisation [2]	mobilization of CD34(+) hematopoietic cells [2]	time of peak level of mobilization [2]	half-life at 10 µM [3] [h]	Hemo-lysis at 100 μM [4]	IC50 (human CXCR4) [nM]	NOAEL at 14 days ([5]; both sexes, Crl:CD1(ICR), in vivo, iv, mouse, daily i.v. dosing, 14 days, read-out: NOAEL level) [mg/kg/day]	white blood cell and absolute lymphocyte counts ([5]; females given 40 mg/kg/day)	clinical chemistry results [5, 9]	effect on body weight, body weight change, food consumption, ophthalmic observations [5, 9]	test article-related gross lesions [5, 9]	test article-related microscopic lesions [5, 9]	acute minimum lethal intravenous dose level [6]	half-life at 10 µM [7] [h]	return of CFU-GM to baseline levels, time post administration ([1]; C3H/HeJ mice, 5 mg/kg s.c.) [h]	time of maximal effect on CFU-GM blood cell numbers ([1]; C3H/HeJ mice, 5 mg/kg s.c.) [min]	dose of peak level increase in release of CFU-GM (dose response) ([1]; mice, follow up dose response study) [mg/kg]	CC50 at 48 h [8] [nM]
c1cc(CN2CCCNCCNCCCNCC2)ccc1CN1CCCNCCNCCCNCC1 [AMD3100, reference compound]	increase in the frequency and number of progenitors at 30 and 60 minutes	–	–	–	–	–	–	–	–	–	–	–	–	–	–	–	–	–	–
C[C@@H]1NC(=O)[C@H](Cc2c[nH]cn2)NC(=O)[C@H](Cc2ccc(O)cc2)NC(=O)[C@@H]2CCCN2C(=O)[C@H]2CCCN2C(=O)[C@H](CCCCN)NC(=O)[C@H](CCC(N)=O)NC(=O)[C@H](Cc2ccc(O)cc2)NC(=O)[C@@H]2CSSC[C@H](NC1=O)C(=O)N[C@@H](CO)C(=O)N[C@@H](C)C(=O)N1CCC[C@@H]1C(=O)N[C@@H](CCN)C(=O)N[C@@H](CCCNC(=N)N)C(=O)N[C@@H](Cc1ccc(O)cc1)C(=O)N2 [Example 1]	–	transient	induced mobilization of CD34(+) hematopoietic cells	peak level at two hours	> 4	0.6	5.5	40	mildly higher	unaffected	no notable effect	No test article-related gross lesions were recorded	No test article-related microscopic lesions were observed	exceed 90 mg/kg	> 4	6	120	5	> 50000
